Test results as given in US9783495B2, “Treatment for lipodystrophy” (Cadila Healthcare Limited, priority 2011, dated 2017).

Experiments:
[1] = test system: HIV-infected men with central obesity and low testosterone levels; settings: transdermal gel 10 g daily, 24 weeks, cited from earlier work
[2] = test system: subjects with hypertriglyceridemia in HIV associated lipodystrophy; assay: Prospective, multi-centric, open-label, single arm study of 4 mg of compound of formula (I) in hypertriglyceridemia in HIV associated lipodystrophy; type: in vivo, human; settings: 4 mg oral once daily; for Homa of Insulin Resistance for C-Peptide, Mean ± SD: Visit 1 mean 1.59 ± 0.82; for Insulin (fasting), Mean ± SD: Visit 1 mean 9.21 ± 6.26; for HDL Cholesterol, Mean ± SD: Visit 1 mean 35.27 ± 7.85; for HOMA of Beta Cell Function for Insulin, Mean ± SD: Visit 1 mean 107.82 ± 52.85; for TG, Mean ± SD: Visit 1 mean 301.68 ± 86.99; for Homa of Insulin Resistance for C-Peptide, Median: Visit 1 median 1.40; for Insulin (fasting), Median: Visit 1 median 7.40; for HDL Cholesterol, Median: Visit 1 median 34.52; for HOMA of Beta Cell Function for Insulin, Median: Visit 1 median 97.25; for TG, Median: Visit 1 median 275.45
From the text: After obtaining informed written consent, subjects with hypertriglyceridemia in HIV associated lipodystrophy, on treatment with HAART for at least 18 months and satisfying the inclusion and exclusion criteria were enrolled in the study.
The primary efficacy endpoint was to assess the percent change in TG levels from baseline to Week 6 and Week 12. The secondary efficacy endpoint was the assessment of LDL, VLDL, HDL, Non HDL cholesterol, Total cholesterol, Apo Al, Apo B, and C-peptide and fasting insulin for HOMA beta and HOMA IR.
For the efficacy endpoints, treatment effect was evaluated using an analysis of variance (ANOVA) model with factors for baseline and treatment. Treatment effects were estimated using the least-square means (LSM) and 95% confidence intervals (CIs) from the ANOVA model. Statistical significance was defined as a two-sided p-value <0.05. All other secondary endpoints were analyzed using appropriate statistical methods.
Subjects who satisfied all of the following criteria were eligible for enrolment in the study: • 1. Males and females aged 18-65 years. • 2. Confirmed diagnosis of HIV1 and on HAART for at least 18 months. • 3. On stable ART regimen for at least 8 weeks prior to inclusion in the study and ART regimen not expected to change in next 3 months. • 4. Subjects clinically diagnosed as HIV lipodystrophy (at least 1 moderate or severe lipodystrophy feature identified by doctor and patient, except isolated abdominal obesity) • 5. Triglycerides>200 to 500 mg %. • 6. CD4 count of>50/mm^3 • 7. Subject who had given informed consent for participation in this trial. Treatments Treatments Administered […]
The primary efficacy endpoint was to determine the percent change in TG levels from baseline to Week 6 and Week 12.
The secondary efficacy endpoint was to determine the percent change in LDL, VLDL, HDL, total cholesterol, non-HDL Cholesterol (measured value), Apo Al, and Apo B, C-peptide and fasting insulin for HOMA beta and HOMA IR levels from baseline to Week 6 and Week 12.
The primary efficacy variable was the reduction in TG at Week 6 and Week 12 of the treatment period compared with baseline. The change from baseline was determined as the difference between the means for the treatment period (Weeks 6/Weeks 12) and the baseline.
Intent-to-treat (ITT) and/or Per Protocol (PP) analysis were carried out for the study. The PP analysis was considered definitive while the ITT analysis was considered supportive during the trial analysis.
One subject identified as EHT004 in the study, a person, was reported with abnormally low levels of HDL (3.95 mg/L) and LDL (6.25 mg/L) at Visit 1. Though this subject completed the study and was assessable for efficacy, it was decided to exclude this subject from the efficacy analyses. Therefore a total of 49 subjects were analyzed for efficacy.

Dyslipidemia subjects = assay: Phase II studies in Dyslipidemia subjects; type: in vivo, human; settings: 4 mg once daily
Protocol: This was exploratory proof of concept study designed to assess the proof of safety and efficacy in intended population. […] Based upon these observations 4 mg once daily in fasted condition was selected for present study

[3] = Phase I study, effect of food on absorption; type: in vivo, human
[4] = Visit 3 (Week 6), p <0.0001, listed as COMPOUND OF FORMULA(I)
[5] = Visit 4 (Week 12), p <0.0001, listed as COMPOUND OF FORMULA(I)

C[C@]12CC[C@H]3[C@@H](CCC4=CC(=O)CC[C@@]43C)[C@@H]1CC[C@@H]2O [testosterone]
change in VAT ([1]; placebo +2.3%, no statistically significant difference): +0.9%
change in limb fat ([1]; placebo +3.1%, statistically significant): −10.1%
change in abdominal fat ([1]; placebo +4.3%, statistically significant): −1.5%
change in trunk fat ([1]; placebo +4.6%, statistically significant): −9.9%
change in abdominal subcutaneous adipose tissue (SAT) ([1]; placebo +8.1%, statistically significant): −7.2%

(S)-α-Ethoxy-4-[2-[-methyl-5-[4-(methylthio)phenyl]-1H-pyrrol-1-yl]ethoxy] benzenepropanoic acid magnesium salt [compound of formula (I)]
HDL Cholesterol, Maximum ([2]; Visit 3 (Week 6)): 73.50 mg/dL
HDL Cholesterol, Minimum ([2]; Visit 3 (Week 6)): 20.13 mg/dL
HOMA of Beta Cell Function for Insulin, Maximum ([2]; Visit 3 (Week 6)): 348.00
HOMA of Beta Cell Function for Insulin, Minimum ([2]; Visit 3 (Week 6)): 34.90
Homa of Insulin Resistance for C-Peptide, Maximum ([2]; Visit 3 (Week 6)): 3.60
Homa of Insulin Resistance for C-Peptide, Minimum ([2]; Visit 3 (Week 6)): 0.90
Insulin (fasting), Maximum ([2]; Visit 3 (Week 6)): 26.82 μu/mL
Insulin (fasting), Minimum ([2]; Visit 3 (Week 6)): 2.14 μu/mL
TG, Maximum ([2]; Visit 3 (Week 6)): 631.08 mg/dL
TG, Minimum ([2]; Visit 3 (Week 6)): 42.61 mg/dL
Homa of Insulin Resistance for C-Peptide, Mean ± SD ([2]; Visit 3 (Week 6)): 1.86 ± 0.77
Insulin (fasting), Mean ± SD ([2]; Visit 3 (Week 6)): 10.42 ± 5.74 μu/mL
HDL Cholesterol, Mean ± SD ([2]; Visit 3 (Week 6)): 44.44 ± 14.04 mg/dL
HOMA of Beta Cell Function for Insulin, Mean ± SD ([2]; Visit 3 (Week 6)): 136.41 ± 76.00
TG, Mean ± SD ([2]; Visit 3 (Week 6)): 172.81 ± 106.30 mg/dL
Homa of Insulin Resistance for C-Peptide, Median ([2]; Visit 3 (Week 6)): 1.70
Insulin (fasting), Median ([2]; Visit 3 (Week 6)): 8.35 μu/mL
HDL Cholesterol, Median ([2]; Visit 3 (Week 6)): 43.36 mg/dL
HOMA of Beta Cell Function for Insulin, Median ([2]; Visit 3 (Week 6)): 116.50
TG, Median ([2]; Visit 3 (Week 6)): 147.68 mg/dL
HOMA of Beta Cell Function for Insulin, % Change from Visit 1 (LS Mean ± SE) ([2]; Visit 3 (Week 6), p 0.0010): 52.50±14.94%
HOMA of Beta Cell Function for Insulin, % Change from Visit 1 (LS Mean ± SE) ([2]; Visit 3 (Week 6), p 0.0010, listed as COMPOUND OF FORMULA(I)): 52.50 ± 14.94%
HOMA of Beta Cell Function for Insulin, Change from Visit 1 (LS Mean ± SE) ([2]; Visit 3 (Week 6), p 0.0015): 29.55 ± 8.76
HDL Cholesterol, % Change from Visit 1 (LS Mean ± SE) ([2]; Visit 3 (Week 6), p <0.0001): 29.92±5.73%
HDL Cholesterol, Change from Visit 1 (LS Mean ± SE) ([2]; Visit 3 (Week 6), p <0.0001): 9.17 ± 1.99 mg/dL
Homa of Insulin Resistance for C-Peptide, % Change from Visit 1 (LS Mean ± SE) ([2]; Visit 3 (Week 6), p <0.0001): 27.87±4.22%
Homa of Insulin Resistance for C-Peptide, Change from Visit 1 (LS Mean ± SE) ([2]; Visit 3 (Week 6), p <0.0001): 0.27 ± 0.05
Insulin (fasting), % Change from Visit 1 (LS Mean ± SE) ([2]; Visit 3 (Week 6), p <0.0001): 23.71±3.55%
Insulin (fasting), Change from Visit 1 (LS Mean ± SE) ([2]; Visit 3 (Week 6), p <0.0001): 1.21 ± 0.22 μu/mL
TG, % Change from Visit 1 (LS Mean ± SE) ([2]; Visit 3 (Week 6), p <0.0001): -40.98±4.89%
TG, Change from Visit 1 (LS Mean ± SE) ([2]; Visit 3 (Week 6), p <0.0001): -128.87 ± 14.96 mg/dL
HDL Cholesterol, % Change from Visit 1 (LS Mean ± SE) [2, 4]: 29.92 ± 5.73%
Homa of Insulin Resistance for C-Peptide, % Change from Visit 1 (LS Mean ± SE) [2, 4]: 27.87 ± 4.22%
Insulin (fasting), % Change from Visit 1 (LS Mean ± SE) [2, 4]: 23.71 ± 3.55%
TG, % Change from Visit 1 (LS Mean ± SE) [2, 4]: −40.98 ± 4.89%
HDL Cholesterol, Maximum ([2]; Visit 4 (Week 12)): 82.89 mg/dL
HDL Cholesterol, Minimum ([2]; Visit 4 (Week 12)): 17.61 mg/dL
HOMA of Beta Cell Function for Insulin, Maximum ([2]; Visit 4 (Week 12)): 273.30
HOMA of Beta Cell Function for Insulin, Minimum ([2]; Visit 4 (Week 12)): 9.80
Homa of Insulin Resistance for C-Peptide, Maximum ([2]; Visit 4 (Week 12)): 3.60
Homa of Insulin Resistance for C-Peptide, Minimum ([2]; Visit 4 (Week 12)): 1.10
Insulin (fasting), Maximum ([2]; Visit 4 (Week 12)): 24.29 μu/mL
Insulin (fasting), Minimum ([2]; Visit 4 (Week 12)): 5.93 μu/mL
TG, Maximum ([2]; Visit 4 (Week 12)): 387.69 mg/dL
TG, Minimum ([2]; Visit 4 (Week 12)): 46.88 mg/dL
Homa of Insulin Resistance for C-Peptide, Mean ± SD ([2]; Visit 4 (Week 12)): 2.15 ± 0.62
Insulin (fasting), Mean ± SD ([2]; Visit 4 (Week 12)): 11.40 ± 4.45 μu/mL
HDL Cholesterol, Mean ± SD ([2]; Visit 4 (Week 12)): 46.14 ± 14.84 mg/dL
HOMA of Beta Cell Function for Insulin, Mean ± SD ([2]; Visit 4 (Week 12)): 137.56 ± 46.11
TG, Mean ± SD ([2]; Visit 4 (Week 12)): 166.97 ± 89.17 mg/dL
Homa of Insulin Resistance for C-Peptide, Median ([2]; Visit 4 (Week 12)): 2.10
Insulin (fasting), Median ([2]; Visit 4 (Week 12)): 10.18 μu/mL
HDL Cholesterol, Median ([2]; Visit 4 (Week 12)): 47.70 mg/dL
HOMA of Beta Cell Function for Insulin, Median ([2]; Visit 4 (Week 12)): 125.60
TG, Median ([2]; Visit 4 (Week 12)): 145.91 mg/dL
HDL Cholesterol, % Change from Visit 1 (LS Mean ± SE) ([2]; Visit 4 (Week 12), p <0.0001): 34.56±6.13%
HDL Cholesterol, Change from Visit 1 (LS Mean ± SE) ([2]; Visit 4 (Week 12), p <0.0001): 10.87 ± 2.08 mg/dL
HOMA of Beta Cell Function for Insulin, % Change from Visit 1 (LS Mean ± SE) ([2]; Visit 4 (Week 12), p <0.0001): 45.64±6.22%
HOMA of Beta Cell Function for Insulin, Change from Visit 1 (LS Mean ± SE) ([2]; Visit 4 (Week 12), p <0.0001): 30.78 ± 4.25
Homa of Insulin Resistance for C-Peptide, % Change from Visit 1 (LS Mean ± SE) ([2]; Visit 4 (Week 12), p <0.0001): 58.29±5.74%
Homa of Insulin Resistance for C-Peptide, Change from Visit 1 (LS Mean ± SE) ([2]; Visit 4 (Week 12), p <0.0001): 0.56 ± 0.05
Insulin (fasting), % Change from Visit 1 (LS Mean ± SE) ([2]; Visit 4 (Week 12), p <0.0001): 47.10±4.21%
Insulin (fasting), Change from Visit 1 (LS Mean ± SE) ([2]; Visit 4 (Week 12), p <0.0001): 2.20 ± 0.21 μu/mL
TG, % Change from Visit 1 (LS Mean ± SE) ([2]; Visit 4 (Week 12), p <0.0001): -45.11±3.60%
TG, Change from Visit 1 (LS Mean ± SE) ([2]; Visit 4 (Week 12), p <0.0001): -134.71 ± 10.78 mg/dL
HDL Cholesterol, % Change from Visit 1 (LS Mean ± SE) [2, 5]: 34.56 ± 6.13%
HOMA of Beta Cell Function for Insulin, % Change from Visit 1 (LS Mean ± SE) [2, 5]: 45.64 ± 6.22%
Homa of Insulin Resistance for C-Peptide, % Change from Visit 1 (LS Mean ± SE) [2, 5]: 58.29 ± 5.74%
Insulin (fasting), % Change from Visit 1 (LS Mean ± SE) [2, 5]: 47.10 ± 4.21%
TG, % Change from Visit 1 (LS Mean ± SE) [2, 5]: −45.11 ± 3.60%
increase in the HOMA of Beta-cell function derived from C-peptide from baseline ([2]; Week 6, p 0.0104): 68.25±25.58
HOMA of insulin resistance derived from insulin, percent change from baseline ([2]; Week 6, p <0.0001): 29.10±3.94%
change in the non-HDL cholesterol levels from baseline ([2]; Week 6 and Week 12, p-values 0.3963 and 0.4646): no statistically significant change
HOMA of insulin resistance derived from insulin, percent change from baseline ([2]; Week 12, p <0.0001): 42.65±3.79%
increase in the HOMA of Beta-cell function derived from C-peptide from baseline ([2]; Week 12, p <0.0001): 71.67±16.20
efficacy (Dyslipidemia subjects): effective
tolerability (Dyslipidemia subjects): well tolerated
effect of food on absorption [3]: food significantly affects absorption
